According to patent US7205382B2, “Peptides, the production and use thereof for binding immunoglobulins” (Fresenius Medical Care Affina GmbH, priority 2000, dated 2007):
Bridge positions count the residues as written; N and C are the ends. Square brackets hold non-standard residues; d marks the D form. Ends that are not written are not given here. cellulose = not defined here; βAla = NCCC(=O)O

Tests used:
Type in all cases: binding
Parameters in all cases: key: No binding of immunoglobulin for the defined peptide variant, detection negative: 0; Binding of immunoglobulin for the defined peptide variant, detection positive: +
serum albumin = experiment: Cellulose-immobilized 13-mer peptide variants incubated with serum albumin (negative control), anti-human IgG-AP detection; conditions: blocking buffer without addition, 3 h room temperature
Method: (§1) Peptides consisting of 13 amino acids were synthesized by solid phase synthesis (Houghten, 1985) on a cellulose matrix with (βA)(βA) as a spacer group.
(§2) The immobilized peptides were tested for their immunoglobulin binding capability by incubation with human IgG-Fc in a buffered solution and by incubation with human plasma.
(§3) Thus, the peptide variants immobilized on solid phases were washed with T-TBS buffer (136 mM NaCl, 1.6 mM KCl, 0.05% (v/v) Tween 20, 50 mM Tris-HCl, pH 8.0) and subsequently treated with blocking buffers (5% (w/v) saccharose, 4% (w/v) bovine serum albumin in T-TBS). Incubation of the immobilized peptides with IgG-Fc (1 μg/ml) in blocking buffer and human serum (diluted 1:10,000 in blocking buffer) was effected for 3 h at room temperature. For checking the specificity of the binding, buffered serum albumin solution (blocking buffer) without addition was included as a control. Thereafter, the peptide variants immobilized on the solid phases were washed three more times with T-TBS buffer.
(§4) After incubation with alkaline phosphatase-conjugated anti-human IgG antibody (1.2 μg/ml) in blocking buffer, detection of the immunoglobulin binding was effected by means of NBT (nitroblue tetrazolium chloride)/BCIP (5-bromo-4-chloro-3-indolyl phosphate toluidine salt) as a substrate (200 μl of parent solution (18.75 mg/ml NBT and 9.4 mg/ml BCIP in 67% (v/v) DMSO) in 10 ml developing buffer (100 mM Tris-HCl, 100 mM NaCl, 5 mM MgCl2, pH 9.5)).

[1] = test system: immunoglobulins in human plasma; experiment: Cellulose-immobilized 13-mer peptide variants incubated with human plasma, anti-human IgG-AP detection; conditions: human plasma as sample, diluted 1:10,000 in blocking buffer, 3 h room temperature
Method: as §1, §2, §3, §4

human IgG-Fc = experiment: Cellulose-immobilized 13-mer peptide variants incubated with human IgG-Fc, anti-human IgG-AP detection; conditions: IgG-Fc 1 μg/ml in blocking buffer, 3 h room temperature
Method: as §1, §2, §3, §4

Row | Substance | Result for incubation with serum albumin (immunoglobulin binding detection) (serum albumin) | Result for incubation with human plasma (immunoglobulin binding detection) [1] | Result for incubation with human IgG-Fc (immunoglobulin binding detection) (human IgG-Fc)
1 | 03E: cellulose-bound 13-mer variant DCEWHLGELVWCT-(βA)(βA) (DCEWHLGELVWCT-{βAla-βAla-cellulose}; disulfide 2-12 (inferred); reading uncertain; also: printed as DCEWHLGELVWCT-(βA)(βA)) | 0 | 0 | +
2 | 04Y: cellulose-bound 13-mer variant DCAYHLGELVWCT-(βA)(βA) (disulfide 2-12 (inferred); not fully specified (N-terminus, C-terminus); printed as DCAYHLGELVWCT-(βA)(βA); also: cellulose-bound) | 0 | + | +
3 | 03R: cellulose-bound 13-mer variant DCRWHLGELVWCT-(βA)(βA) (DCRWHLGELVWCT-{βAla-βAla-cellulose}; disulfide 2-12 (inferred); reading uncertain; also: printed as DCRWHLGELVWCT-(βA)(βA)) | 0 | 0 | 0
4 | 01G: cellulose-bound 13-mer variant GCAWHLGELVWCT-(βA)(βA) (GCAWHLGELVWCT-{βAla-βAla-cellulose}; disulfide 2-12 (inferred); reading uncertain; also: printed as GCAWHLGELVWCT-(βA)(βA)) | 0 | + | +
5 | 02Y: cellulose-bound 13-mer variant DYAWHLGELVWCT-(βA)(βA) (DYAWHLGELVWCT[βAla][βAla]; not fully specified; printed as DYAWHLGELVWCT-(βA)(βA); also: cellulose-bound) | 0 | 0 | 0
6 | 09M: cellulose-bound 13-mer variant DCAWHLGEMVWCT-(βA)(βA) (DCAWHLGEMVWCT-{βAla-βAla-cellulose}; disulfide 2-12 (inferred); reading uncertain; also: printed as DCAWHLGEMVWCT-(βA)(βA)) | 0 | 0 | +
7 | 08C: cellulose-bound 13-mer variant DCAWHLGCLVWCT-(βA)(βA) (DCAWHLGCLVWCT-{βAla-βAla-cellulose}; not fully specified (N-terminus); printed as DCAWHLGCLVWCT-(βA)(βA); cysteine pairing not given here; reading uncertain) | 0 | 0 | 0
8 | 12K: cellulose-bound 13-mer variant DCAWHLGELVWKT-(βA)(βA) (DCAWHLGELVWKT-{βAla-βAla-cellulose}; not fully specified; printed as DCAWHLGELVWKT-(βA)(βA); reading uncertain) | 0 | 0 | 0

More lines, now with the values ahead:

Row | Result for incubation with serum albumin (immunoglobulin binding detection) (serum albumin) | Result for incubation with human plasma (immunoglobulin binding detection) [1] | Result for incubation with human IgG-Fc (immunoglobulin binding detection) (human IgG-Fc) | Substance
9 | 0 | + | + | 04M: cellulose-bound 13-mer variant DCAMHLGELVWCT-(βA)(βA) (DCAMHLGELVWCT[βAla][βAla]; disulfide 2-12 (inferred); also: cellulose-bound)
10 | 0 | 0 | 0 | 01T: cellulose-bound 13-mer variant TCAWHLGELVWCT-(βA)(βA) (TCAWHLGELVWCT-{βAla-βAla-cellulose}; disulfide 2-12 (inferred); reading uncertain; also: printed as TCAWHLGELVWCT-(βA)(βA))
11 | 0 | 0 | 0 | 10H: cellulose-bound 13-mer variant DCAWHLGELHWCT-(βA)(βA) (DCAWHLGELHWCT-{βAla-βAla-cellulose}; disulfide 2-12 (inferred); reading uncertain; also: printed as DCAWHLGELHWCT-(βA)(βA))
12 | 0 | + | + | 04E: cellulose-bound 13-mer variant DCAEHLGELVWCT-(βA)(βA) (DCAEHLGELVWCT[βAla][βAla]; disulfide 2-12 (inferred); also: cellulose-bound)
13 | 0 | 0 | 0 | 08I: cellulose-bound 13-mer variant DCAWHLGILVWCT-(βA)(βA) (DCAWHLGILVWCT-{βAla-βAla-cellulose}; disulfide 2-12 (inferred); not fully specified (N-terminus); printed as DCAWHLGILVWCT-(βA)(βA); reading uncertain)
14 | 0 | + | + | 06M: cellulose-bound 13-mer variant DCAWHMGELVWCT-(βA)(βA) (DCAWHMGELVWCT-{βAla-βAla-cellulose}; disulfide 2-12 (inferred); not fully specified (N-terminus); printed as DCAWHMGELVWCT-(βA)(βA); reading uncertain)
15 | 0 | + | + | 06R: cellulose-bound 13-mer variant DCAWHRGELVWCT-(βA)(βA) (DCAWHRGELVWCT-{βAla-βAla-cellulose}; disulfide 2-12 (inferred); not fully specified (N-terminus); printed as DCAWHRGELVWCT-(βA)(βA); reading uncertain)
16 | 0 | 0 | 0 | 09E: cellulose-bound 13-mer variant DCAWHLGEEVWCT-(βA)(βA) (DCAWHLGEEVWCT-{βAla-βAla-cellulose}; disulfide 2-12 (inferred); reading uncertain; also: printed as DCAWHLGEEVWCT-(βA)(βA))
17 | 0 | + | + | 08R: cellulose-bound 13-mer variant DCAWHLGRLVWCT-(βA)(βA) (DCAWHLGRLVWCT-{βAla-βAla-cellulose}; disulfide 2-12 (inferred); reading uncertain; also: printed as DCAWHLGRLVWCT-(βA)(βA))
18 | 0 | 0 | 0 | 05G: cellulose-bound 13-mer variant DCAWGLGELVWCT-(βA)(βA) (disulfide 2-12 (inferred); not fully specified (N-terminus, C-terminus); printed as DCAWGLGELVWCT-(βA)(βA); also: cellulose-bound)
19 | 0 | 0 | 0 | 05A: cellulose-bound 13-mer variant DCAWALGELVWCT-(βA)(βA) (disulfide 2-12 (inferred); not fully specified (N-terminus, C-terminus); printed as DCAWALGELVWCT-(βA)(βA); also: cellulose-bound)
